For orientation: logD means lipophilicity at a set pH, counting ionised and neutral species. One may read the IC50 as the concentration needed to halve the response being measured. Read a high IC50 as a need for much substance.

Data on 19 compounds can be found in ChEMBL document CHEMBL3784945, “Isoindolinone compounds active as Kv1.5 blockers identified using a multicomponent reaction approach” (Bioorg Med Chem Lett, 2016).

Data set [1] is described as follows: Lipophilicity, log D of the compound by HPLC analysis. In kind it is physicochemical. The note with it: read-out: logD.
The nature of data set [2]: Intrinsic clearance in human liver microsomes. It counts as ADME. The conditions noted are these: liver microsomes, read-out: CLH.
The target in data set [3] is T1, Potassium voltage-gated channel subfamily A member 5 (Homo sapiens, UniProt P22460). The data set can be described thus: Inhibition of human Kv1.5 channel by QPatch-clamp method. (In general: Patch clamp records ionic current or voltage across a cell membrane.)
T1 sequence (P22460 whole entry): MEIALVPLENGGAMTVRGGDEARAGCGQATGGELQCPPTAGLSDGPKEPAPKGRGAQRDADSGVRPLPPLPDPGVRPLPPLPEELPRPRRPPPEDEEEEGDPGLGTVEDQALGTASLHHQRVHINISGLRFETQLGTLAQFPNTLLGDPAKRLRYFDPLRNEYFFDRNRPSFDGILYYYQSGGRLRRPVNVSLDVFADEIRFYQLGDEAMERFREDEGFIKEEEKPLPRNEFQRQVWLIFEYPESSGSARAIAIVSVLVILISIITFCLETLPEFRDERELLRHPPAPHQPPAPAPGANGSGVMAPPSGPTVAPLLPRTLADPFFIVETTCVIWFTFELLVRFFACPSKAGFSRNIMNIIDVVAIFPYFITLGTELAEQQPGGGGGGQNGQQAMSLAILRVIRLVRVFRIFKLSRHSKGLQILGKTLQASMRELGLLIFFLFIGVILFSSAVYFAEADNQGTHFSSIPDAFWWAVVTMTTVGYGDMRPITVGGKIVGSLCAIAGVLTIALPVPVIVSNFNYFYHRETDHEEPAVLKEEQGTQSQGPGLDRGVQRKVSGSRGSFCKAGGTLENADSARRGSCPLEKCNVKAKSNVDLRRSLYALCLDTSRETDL
Data set [4] concerns the target Voltage-gated inwardly rectifying potassium channel KCNH2 (Homo sapiens, UniProt Q12809). The data set can be described thus: Inhibition of human ERG.
Data set [5] has as its target T1, Potassium voltage-gated channel subfamily A member 5. The data set can be described thus: Inhibition of human Kv1.5 channel by Rb-flux assay.

Chain of Voltage-gated inwardly rectifying potassium channel KCNH2 (Q12809 whole entry): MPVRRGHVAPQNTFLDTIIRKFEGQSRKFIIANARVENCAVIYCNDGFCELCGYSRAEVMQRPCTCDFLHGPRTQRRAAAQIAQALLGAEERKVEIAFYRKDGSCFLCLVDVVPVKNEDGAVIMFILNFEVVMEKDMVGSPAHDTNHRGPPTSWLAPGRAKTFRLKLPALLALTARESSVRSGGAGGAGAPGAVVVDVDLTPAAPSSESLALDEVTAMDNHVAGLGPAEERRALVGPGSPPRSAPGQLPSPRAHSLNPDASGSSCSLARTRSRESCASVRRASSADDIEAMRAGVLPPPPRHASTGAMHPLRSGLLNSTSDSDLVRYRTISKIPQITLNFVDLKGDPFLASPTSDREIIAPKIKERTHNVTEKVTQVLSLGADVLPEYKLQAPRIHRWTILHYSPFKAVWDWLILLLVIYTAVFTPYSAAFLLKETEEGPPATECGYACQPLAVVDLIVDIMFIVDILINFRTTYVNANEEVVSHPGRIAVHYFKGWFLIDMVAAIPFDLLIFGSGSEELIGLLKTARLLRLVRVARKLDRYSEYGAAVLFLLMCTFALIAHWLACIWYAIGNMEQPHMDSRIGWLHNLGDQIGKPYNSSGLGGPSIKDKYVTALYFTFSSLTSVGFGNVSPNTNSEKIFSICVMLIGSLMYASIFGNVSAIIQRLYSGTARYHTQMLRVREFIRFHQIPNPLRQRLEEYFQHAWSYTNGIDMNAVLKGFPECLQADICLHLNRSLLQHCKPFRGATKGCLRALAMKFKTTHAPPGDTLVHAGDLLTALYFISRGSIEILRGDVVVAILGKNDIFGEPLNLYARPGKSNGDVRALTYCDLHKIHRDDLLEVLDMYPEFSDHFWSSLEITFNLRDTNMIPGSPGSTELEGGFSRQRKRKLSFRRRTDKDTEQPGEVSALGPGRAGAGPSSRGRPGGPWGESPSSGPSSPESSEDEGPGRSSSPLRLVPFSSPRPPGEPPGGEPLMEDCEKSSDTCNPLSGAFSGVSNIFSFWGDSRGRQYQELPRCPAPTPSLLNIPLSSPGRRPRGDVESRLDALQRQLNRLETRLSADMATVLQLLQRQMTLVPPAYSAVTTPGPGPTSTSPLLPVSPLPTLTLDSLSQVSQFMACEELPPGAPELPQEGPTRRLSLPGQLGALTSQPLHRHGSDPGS

With `CC(C)(CN1C(=O)c2ccccc2C1C(=O)NCCCC(F)F)c1ccc(F)cc1` (configuration not stated), the logD in data set [1] worked out at 4.1. Further, the microsomal CLint in data set [2] was 23 µL/min/mg. Moreover, in data set [3], the half-inhibitory concentration (IC50) was determined as 0.6 µM.

Regarding `O=C(NCc1ccncc1)C1c2ccccc2C(=O)N1Cc1ccccc1-c1ccccc1` (racemic), the figures for the IC50 in data set [4] and in data set [5] were more than 33 µM and 13 µM, respectively. For the same compound, the microsomal CLint in data set [2] is more than 100 µL/min/mg.

On to `CC(c1ccccc1)N1C(=O)c2ccccc2C1C(=O)NCc1ccccc1` (racemic), for which the IC50 in data set [4] is more than 33 µM. Further, the logD in data set [1] is 3.5. Also, the microsomal CLint in data set [2] is more than 100 µL/min/mg.

In the case of `CCCCNC(=O)C1c2ccccc2C(=O)N1CC(C)c1ccc(F)cc1` (racemic), in data set [1], the pH-dependent lipophilicity (logD) came out at 4.1. Also, the microsomal CLint in data set [2] worked out at 180 µL/min/mg. The IC50 in data set [3] turned out to be 0.9 µM.

As for `CC(c1ccccc1)N1C(=O)c2ccccc2C1C(=O)NC(C)(C)CO` (racemic), the figures for the half-maximal inhibitory concentration (IC50) in data set [4], in data set [5] and in data set [3] were more than 33 µM, more than 32 µM and more than 10 µM, respectively. Also, the microsomal CLint in data set [2] worked out at 34 µL/min/mg.

As to `COc1ccc2c(c1C)C(=O)N(Cc1ccccc1-c1ccccc1)C2C(=O)NC(C)(C)C` (racemic), the logD in data set [1] came to 5.6. The microsomal CLint in data set [2] is more than 100 µL/min/mg. The compound also yielded a concentration for half-maximal inhibition (IC50) in data set [3] of 0.8 µM.

Turning to `CC(C)(C)NC(=O)C1c2ccc(C#N)cc2C(=O)N1Cc1ccccc1-c1ccccc1` (racemic), in data set [1], the log distribution coefficient (logD) is 4.7. The same compound returned a half-maximal inhibitory concentration (IC50) in data set [5] of 37 µM. In addition, the microsomal CLint in data set [2] is more than 100 µL/min/mg.

The compound `CC(C)(C)NC(=O)C1c2ccccc2C(=O)N1Cc1ccccc1-c1ccccc1` (single isomer, unassigned; enantiomer 1) came in with an IC50 in data set [4] of more than 33 µM.

On to `CC(C)(C)NC(=O)C1c2ccccc2C(=O)N1Cc1ccccc1-c1ccccc1` (racemic), for which the IC50 in data set [4] amounted to 62 µM. The logD in data set [1] was 4.7. The microsomal CLint in data set [2] is more than 100 µL/min/mg.

Regarding `CC(C)(C)NC(=O)C1c2cc(C#N)ccc2C(=O)N1Cc1ccccc1-c1ccccc1` (racemic), the IC50 in data set [4] is more than 33 µM; in data set [3], 3.3 µM. Further, the logD in data set [1] was 4.7. For the same compound, in data set [2], the microsomal CLint was more than 100 µL/min/mg.

For the compound `Cc1c(OCF)ccc2c1C(=O)N(Cc1ccccc1-c1ccccc1)C2C(=O)NC(C)(C)C` (racemic), the logD in data set [1] amounted to 5.6. The microsomal CLint in data set [2] was more than 100 µL/min/mg. The same compound came in with an IC50 in data set [3] of 1.3 µM.

With `CC(C)(C)NC(=O)C1c2c(O)cccc2C(=O)N1Cc1ccccc1-c1ccccc1` (racemic), the IC50 was determined as 28 µM in data set [4] and 2.1 µM in data set [3]. In addition, in data set [1], the logD is 4.6. Besides, in data set [2], the microsomal CLint is more than 100 µL/min/mg.

As for `CC(CN1C(=O)c2ccccc2C1C(=O)NCC(F)F)c1ccc(Cl)cc1` (racemic), the logD in data set [1] was determined as 3.7. For the same compound, the microsomal CLint in data set [2] stood at 73 µL/min/mg. In data set [3], this compound yielded a half-inhibitory concentration (IC50) of 1.2 µM.

In the case of `Cc1c(O)ccc2c1C(=O)N(Cc1ccccc1-c1ccc(F)c(F)c1)C2C(=O)NC(C)(C)C` (configuration not stated), the logD in data set [1] worked out at 4.6. Also, the microsomal CLint in data set [2] is less than 12 µL/min/mg. In addition, the IC50 in data set [3] came to 3.5 µM.

In the case of `CCCCNC(=O)C1c2ccccc2C(=O)N1CC(C)(O)c1ccc(Cl)cc1` (configuration not stated), the logD in data set [1] worked out at 3.5. The microsomal CLint in data set [2] is 64 µL/min/mg. For the same compound, 1.2 µM corresponded to half-maximal inhibition in data set [3] (IC50).

As to `CC(C)(C)NC(=O)C1c2ccccc2C(=O)N1Cc1ccccc1-c1ccc(F)cc1` (configuration not stated), the IC50 in data set [4] came out at 56 µM; in data set [3], 6 µM. Also, the logD in data set [1] came out at 4.8. Moreover, in data set [2], the microsomal CLint was 53 µL/min/mg.

The compound `CC(C)(C)NC(=O)C1c2cc(Cl)ccc2C(=O)N1C(c1cccnc1)c1cccnc1` (racemic) yielded an IC50 in data set [5] of more than 32 µM. Also, the microsomal CLint in data set [2] came out at 62 µL/min/mg.

`CC(C)(C)NC(=O)C1c2ccccc2C(=O)N1Cc1ccccc1-c1ccccc1` (single isomer, unassigned; enantiomer 2) registered an IC50 in data set [4] of more than 33 µM.

With `Cc1c(O)ccc2c1C(=O)N(Cc1ccccc1-c1ccc(F)cc1)C2C(=O)NC(C)(C)C` (configuration not stated), the IC50 in data set [4] was more than 32 µM; in data set [3], 2.7 µM. Also, in data set [1], the logD amounted to 4.5. Moreover, the microsomal CLint in data set [2] was less than 12 µL/min/mg.
